The target in one series is VIM-2 (Escherichia coli, UniProt Q5U7L7). Description: biochemical. The following applies: CCF2-FA fluorescence assay; read-out: VIM2 IC50.
Another series concerns the target IMP-1 (Serratia marcescens, UniProt P52699). Description: biochemical. Conditions: CCF2-FA fluorescence assay, 2 hours at 25° C.; read-out: IMP1 IC50. Summed up: (§1)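 Metallo-β-lactamase activity read by fluorescence against CCF2-FA (1.25 μM final) in 100 mM KH2PO4 pH 7 with 0.005% Tween-20 and 10 μM ZnSO4; enzyme final at 1 pM NDM-1, 2 pM IMP-1 or 30 pM VIM-1. Inhibitor at 20 to 0.00063 μM, 2 h at 25° C; IC50 by 4-parameter fit.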

Another series addresses VIM-1 (Pseudomonas aeruginosa (strain ATCC 15692 / DSM 22644 / CIP 104116 / JCM 14847 / LMG 12228 / 1C / PRS 101 / PAO1), UniProt A0A0F7KYQ8). Briefly: biochemical. Conditions: CCF2-FA fluorescence assay, 2 hours at 25° C.; read-out: VIM1 IC50. In a few lines:
as §1

Series [1] deals with P. aeruginosa MB9799 (efflux-, IMP-1 plasmid). The format is cell-based, Pseudomonas aeruginosa. Conditions: efflux − (MB9799) strain; imipenem at 2 μg/mL; in the presence of a class A, C, D serine β-lactamase inhibitor closely related to relebactam. Summed up: (§2)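 Isogenic P. aeruginosa PAO1 strains (efflux+ and multiple-efflux-pump-disrupted) carrying plasmid IMP-1, with inducible AmpC, tested by broth microdilution. Imipenem and/or ceftazidime fixed, usually at CLSI breakpoint, plus fixed class A/C β-lactamase inhibitor; titrated MBL inhibitor concentration restoring susceptibility recorded and compared between strains as efflux fold difference.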

A further series concerns the target NDM-1 (Klebsiella pneumoniae, UniProt C7C422). Briefly: biochemical. It counts as biochemical. The following applies: CCF2-FA fluorescence assay, 2 hours at 25° C. Summed up:
as §1

Series [2] relates to P. aeruginosa MB9798 (efflux+, IMP-1 plasmid). Conditions: for MB9798 MITC95 P. aeruginosa uM Efflux WT: efflux + (MB9798) strain, imipenem at 2 μg/mL, in the presence of a class A, C, D serine β-lactamase inhibitor closely related to relebactam; for Efflux ratio: fold difference between efflux+ (MB9798) and efflux− (MB9799) strains. In a few lines: as §2
For series [3], the system named is Serratia marcescens expressing IMP-1 (CL5741). The format is cell-based. Conditions: with imipenem 1 μg/ml; 95% inhibition of bacterial growth. Summed up:
(§3)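 Read-out is absorbance after 22–24 h at 35 °C, with MITC95 taken as the lowest inhibitor concentration that, alongside imipenem at 1 μg/ml, suppresses 95% of bacterial growth. Inocula came from saline-suspended colonies diluted 1:100 into 1.1× CAMHB.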

Series [4] relates to Klebsiella pneumoniae expressing VIM-1 (IHMA599644). The format is cell-based. Conditions: with imipenem 1 μg/ml; 95% inhibition of bacterial growth. Summed up:
as §3

Series [5] relates to Escherichia coli expressing NDM-1 (CLB30016). The format is cell-based. Conditions: with imipenem 1 μg/ml; 95% inhibition of bacterial growth. Summed up:
as §3

Sequence of IMP-1 (P52699 whole entry, looked up, species assumed): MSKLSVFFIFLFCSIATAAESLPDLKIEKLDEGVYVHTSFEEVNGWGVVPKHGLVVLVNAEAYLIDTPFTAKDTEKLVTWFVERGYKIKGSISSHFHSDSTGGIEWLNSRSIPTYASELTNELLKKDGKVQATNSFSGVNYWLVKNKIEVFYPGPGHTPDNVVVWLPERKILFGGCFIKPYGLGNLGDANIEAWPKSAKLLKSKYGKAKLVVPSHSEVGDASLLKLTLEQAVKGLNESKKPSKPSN
Sequence of NDM-1 (C7C422 whole entry, looked up, species assumed): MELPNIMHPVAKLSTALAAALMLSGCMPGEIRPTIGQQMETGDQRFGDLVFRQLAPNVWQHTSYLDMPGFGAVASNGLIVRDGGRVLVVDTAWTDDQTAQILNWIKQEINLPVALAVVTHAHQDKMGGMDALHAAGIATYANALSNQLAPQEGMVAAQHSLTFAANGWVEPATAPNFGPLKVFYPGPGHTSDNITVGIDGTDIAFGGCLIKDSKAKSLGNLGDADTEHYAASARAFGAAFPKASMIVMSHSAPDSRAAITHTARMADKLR

The term IC50 denotes the concentration at which inhibition is half-maximal. As for `NCC(O)C1CCN(c2ccc(S(=O)(=O)NC[C@H](O)CN)c(S(N)(=O)=O)c2-c2nn[nH]n2)CC1` (stereo partly drawn) [Example 132, 4-(4-(2-amino-1-hydroxyethyl)piperidin-1-yl)-N1-((R)-3-amino-2-hydroxypropyl)-3-(2H-tetrazol-5-yl)benzene-1,2-disulfonamide], the IC50 stood at 4.28 nM at VIM-2, 2.49 nM on IMP-1, 0.19 nM on VIM-1 and 1.34 nM on NDM-1. Moreover, the “MB9799 MITC95 P. aeruginosa uM Efflux Mutant” value in [1] worked out at 0.78 µM. Moreover, the “MB9798 MITC95 P. aeruginosa uM Efflux WT” value in series [2] is 0.78 µM. Moreover, the Efflux ratio in [2] came to 1.00. For the same compound, the “CL5741 S. marcescens MITC95 IMP” value in [3] was found to be 0.78 µM. The “IHMA599644 K. pneumoniae MITC95 VIM” value in [4] was 1.56 µM. Moreover, the “CLB30016 E. coli MITC95 NDM” value in series [5] is 0.39 µM.

With `NC[C@@H](O)CNS(=O)(=O)c1ccc(N2CCC(CC(N)=O)CC2)c(-c2nn[nH]n2)c1S(N)(=O)=O` [Example 25, (R)-2-(1-(4-(N-(3-amino-2-hydroxypropyl)sulfamoyl)-3-sulfamoyl-2-(2H-tetrazol-5-yl)phenyl)piperidin-4-yl)acetamide], the IC50 at VIM-2 is 0.74 nM; at IMP-1 it was 0.39 nM; at VIM-1, 0.17 nM; on NDM-1, 0.54 nM. For the same compound, the “MB9799 MITC95 P. aeruginosa uM Efflux Mutant” value in [1] is 3.13 µM. The “MB9798 MITC95 P. aeruginosa uM Efflux WT” value in series [2] was determined as 3.13 µM. Moreover, in series [2], the Efflux ratio was 1.00. Also, the “CL5741 S. marcescens MITC95 IMP” value in series [3] was found to be 6.25 µM. Further, in series [4], the “IHMA599644 K. pneumoniae MITC95 VIM” value came out at 6.25 µM. In addition, the “CLB30016 E. coli MITC95 NDM” value in [5] stood at 3.13 µM.

Turning to `NCCNS(=O)(=O)c1ccc(N2CCN(CCO)CC2)c(-c2nnn[nH]2)c1S(N)(=O)=O` [Example 48, N1-(2-aminoethyl)-4-(4-(2-hydroxyethyl)piper-azin-1-yl)-3-(1H-tetrazol-5-yl)benzene-1,2-disulfonamide], the IC50 amounted to 15 nM on VIM-2, 5.59 nM on IMP-1, 7.23 nM at VIM-1 and 1.52 nM against NDM-1. The “MB9799 MITC95 P. aeruginosa uM Efflux Mutant” value in [1] came to 0.39 µM. The “MB9798 MITC95 P. aeruginosa uM Efflux WT” value in series [2] turned out to be 1.56 µM. Also, the Efflux ratio in series [2] amounted to 4.00. The “CL5741 S. marcescens MITC95 IMP” value in series [3] stood at 0.05 µM. Besides, the “IHMA599644 K. pneumoniae MITC95 VIM” value in [4] worked out at 0.39 µM. In series [5], the “CLB30016 E. coli MITC95 NDM” value came to 0.05 µM.

Consider `NCCC1CCN(c2ccc(S(=O)(=O)N[C@H](CN)CO)c(S(N)(=O)=O)c2-c2nn[nH]n2)CC1` [Example 188, (R)-N1-(1-amino-3-hydroxypropan-2-yl)-4-(4-(2-aminoethyl)piperidin-1-yl)-3-(2H-tetrazol-5-yl)benzene-1,2-disulfonamide], for which the IC50 was 4.85 nM on VIM-2, 3.68 nM on IMP-1, 0.13 nM at VIM-1 and 2.86 nM against NDM-1. Moreover, the “MB9799 MITC95 P. aeruginosa uM Efflux Mutant” value in series [1] amounted to 0.78 µM. Besides, the “MB9798 MITC95 P. aeruginosa uM Efflux WT” value in series [2] is 0.78 µM. Also, the Efflux ratio in series [2] is reported as 1.00. The “CL5741 S. marcescens MITC95 IMP” value in [3] worked out at 0.78 µM. For the same compound, the “IHMA599644 K. pneumoniae MITC95 VIM” value in [4] amounted to 1.56 µM. The “CLB30016 E. coli MITC95 NDM” value in series [5] was determined as 0.78 µM.

Regarding `NC[C@@H]1CCN(c2ccc(S(=O)(=O)N[C@@H]3CCNC3)c(S(N)(=O)=O)c2-c2nn[nH]n2)C[C@@H]1F` (racemic) [Example 7], the IC50 came to 4.46 nM at VIM-2, 3.49 nM at IMP-1, 0.24 nM on VIM-1 and 0.68 nM against NDM-1. Besides, the “MB9799 MITC95 P. aeruginosa uM Efflux Mutant” value in series [1] was 0.39 µM. In series [2], the “MB9798 MITC95 P. aeruginosa uM Efflux WT” value is 0.78 µM. Also, the Efflux ratio in series [2] worked out at 2.00. In addition, the “CL5741 S. marcescens MITC95 IMP” value in series [3] was determined as 0.39 µM. Besides, the “IHMA599644 K. pneumoniae MITC95 VIM” value in series [4] was found to be 0.78 µM. Moreover, the “CLB30016 E. coli MITC95 NDM” value in series [5] stood at 0.20 µM.

Regarding `COC1(CO)CCN(c2ccc(S(=O)(=O)NC[C@H](O)CN)c(S(N)(=O)=O)c2-c2nn[nH]n2)CC1` [Example 21, (R)-N^1-(3-amino-2-hydroxypropyl)-4-(4-(hydroxymethyl)-4-methoxypiperidin-1-yl)-3-(2H-tetrazol-5-yl)benzene-1,2-disulfonamide], the IC50 stood at 2.7 nM on VIM-2, 0.56 nM on IMP-1, 1.13 nM at VIM-1 and 0.41 nM on NDM-1. For the same compound, the “MB9799 MITC95 P. aeruginosa uM Efflux Mutant” value in series [1] was 3.13 µM. Also, in [2], the “MB9798 MITC95 P. aeruginosa uM Efflux WT” value worked out at 3.13 µM. Moreover, in [2], the Efflux ratio is 1.00. Also, the “CL5741 S. marcescens MITC95 IMP” value in [3] came out at 6.25 µM. For the same compound, the “IHMA599644 K. pneumoniae MITC95 VIM” value in series [4] came out at 12.50 µM. The “CLB30016 E. coli MITC95 NDM” value in series [5] came out at 12.50 µM.

`NC(=O)C1CCN(c2ccc(S(=O)(=O)N[C@@H]3CCNC3)c(S(N)(=O)=O)c2-c2nn[nH]n2)CCN1` (stereo partly drawn) [Example 165, 1-(4-(N-((R)-pyrrolidin-3-yl)sulfamoyl)-3-sulfamoyl-2-(2H-tetrazol-5-yl)phenyl)-1,4-diazepane-5-carboxamide]: the IC50 on VIM-2 stood at 2.35 nM; at IMP-1, 2.43 nM; on VIM-1 it was 0.38 nM; at NDM-1, 1.21 nM. The “MB9799 MITC95 P. aeruginosa uM Efflux Mutant” value in series [1] was 0.78 µM. Besides, the “MB9798 MITC95 P. aeruginosa uM Efflux WT” value in [2] amounted to 1.56 µM. For the same compound, the Efflux ratio in series [2] is 2.00. In addition, the “CL5741 S. marcescens MITC95 IMP” value in series [3] was determined as 0.20 µM. Besides, in series [4], the “IHMA599644 K. pneumoniae MITC95 VIM” value came to 1.56 µM. The “CLB30016 E. coli MITC95 NDM” value in [5] amounted to 0.20 µM.

As to `NS(=O)(=O)c1c(S(=O)(=O)N[C@@H]2CCNC2)ccc(N2CCC(F)(CO)CC2)c1-c1nnn[nH]1` [Example 91, 4-[4-fluoro-4-(hydroxymethyl)piperidin-1-yl]-N1-[(3R)-pyrrolidin-3-yl]-3-(1H-tetrazol-5-yl)benzene-1,2-disulfonamide], the IC50 on VIM-2 is 1.65 nM; at IMP-1, 1.26 nM; on VIM-1, 0.47 nM; against NDM-1, 0.42 nM. Besides, the “MB9799 MITC95 P. aeruginosa uM Efflux Mutant” value in series [1] came out at 1.56 µM. Moreover, the “MB9798 MITC95 P. aeruginosa uM Efflux WT” value in [2] came out at 3.13 µM. Besides, the Efflux ratio in [2] was 2.00. In addition, the “CL5741 S. marcescens MITC95 IMP” value in [3] was 3.13 µM. In [4], the “IHMA599644 K. pneumoniae MITC95 VIM” value came to 6.25 µM. Moreover, the “CLB30016 E. coli MITC95 NDM” value in series [5] was 3.13 µM.

Consider `NS(=O)(=O)c1c(S(=O)(=O)N[C@@H]2CCNC2)ccc(N2CCC(CCO)C2)c1-c1nnn[nH]1` (stereo partly drawn) [Example 81, 4-[3-(2-hydroxyethyl)pyrrolidin-1-yl]-N1-[(3R)-pyrrolidin-3-yl]-3-(1H-tetrazol-5-yl)benzene-1,2-disulfonamide], for which the half-inhibitory concentration (IC50) at VIM-2 is 1 nM; at IMP-1 it was 0.62 nM; on VIM-1, 0.51 nM; against NDM-1, 0.64 nM. The “MB9799 MITC95 P. aeruginosa uM Efflux Mutant” value in [1] is 3.13 µM. In addition, the “MB9798 MITC95 P. aeruginosa uM Efflux WT” value in series [2] stood at 6.25 µM. Moreover, the Efflux ratio in [2] worked out at 2.00. Also, in [3], the “CL5741 S. marcescens MITC95 IMP” value turned out to be 3.13 µM. Besides, the “IHMA599644 K. pneumoniae MITC95 VIM” value in [4] stood at 6.25 µM. Further, the “CLB30016 E. coli MITC95 NDM” value in [5] amounted to 3.13 µM.

For `NC[C@@H](O)CNS(=O)(=O)c1ccc(N2CCC3(CC2)CC3N)c(-c2nn[nH]n2)c1S(N)(=O)=O` (stereo partly shown) [Example 12], the IC50 was found to be 17.6 nM on VIM-2, 4.08 nM on IMP-1, 1.48 nM on VIM-1 and 1.51 nM at NDM-1. The “MB9799 MITC95 P. aeruginosa uM Efflux Mutant” value in series [1] turned out to be 0.78 µM. Also, the “MB9798 MITC95 P. aeruginosa uM Efflux WT” value in [2] was 1.56 µM. In series [2], the Efflux ratio is 2.00. Besides, in series [3], the “CL5741 S. marcescens MITC95 IMP” value was found to be 1.56 µM. Further, the “IHMA599644 K. pneumoniae MITC95 VIM” value in series [4] was 1.56 µM. In addition, the “CLB30016 E. coli MITC95 NDM” value in [5] was 0.78 µM.

(Values after US11207312B2, “Metallo-beta-lactamase inhibitors and methods of use thereof” (priority 2017, dated 2021).)
